Measured values from article PMC7067850, “Identification of highly potent and selective inhibitor, TIPTP, of the p22phox-Rubicon axis as a therapeutic agent for rheumatoid arthritis” (Scientific Reports, 2020).

Assays:
[1] = test system: collagen antibody-induced arthritis; assay: Collagen antibody-induced arthritis (CAIA) mouse model, mice transduced with Ad-Rubicon; type: in vivo
Experimental: Collagen antibody-induced arthritis mouse model was induced as previously described. Mice received a single‐dose intravenous injection of anti-type II collagen antibody cocktail (8 mg/mouse) (Arthrogen‐CIA Arthritogenic Monoclonal Antibody, no. 53010; Chondrex) on day −3 and an intraperitoneal injection of 100 μg of lipopolysaccharide on day 0 and were then monitored for the indicated times. Mice were sacrificed under anesthesia for the indicated times and knee joints were isolated. All animal-related procedures were reviewed and approved by the Institutional Animal Care and Use Committee of the Hanyang University (protocol 2017–0219). All animal experiments were performed in accordance with Korean Food and Drug Administration guidelines. […]
Figure 5 TIPTP protects Rubicon-expressed CAIA mice mortality. […] (a) The survival of CAIA mice was monitored for 15 days and mortality was measured for n = 10 mice per group. […] (b) Clinical arthritis score and swelling of paws, or (c) representative H&E staining of the ankle joints of each group were determined at 9 days of CAIA (left). […] Statistical significance was determined by two-way analysis of variance (ANOVA) with Tukey’s posttest; **P < 0.01 compared with Ad-Vector+Vehicle (a). […]
Arthritis mice were evaluated for disease progression three times a week as follows ^1,2. […]

[2] = test system: synoviocytes from RA patients; assay: Synoviocytes from RA patients ex vivo (co-IP, confocal, ELISA, immunoblot); type: cell-based, human
From the text: Synovial tissue specimens were obtained from all female patients with RA (n = 16, 60.5 years ± 6.0) or OA (n = 10, 59.5 years ± 7.2) during open synovectomy or joint replacement surgery at Hanyang University Hospital. All patients gave informed consent, and the procedure was approved by the Ethics Committee of Hanyang University Hospital approved this study (2017-05-003). This study was approved by the bioethics committee of The Red Cross (Seoul, South Korea), which oversees studies using samples from human subjects, and all methods were performed in accordance with the relevant guidelines and regulations.
Immunoblot and immunoprecipitation assays were performed as described previously[18],[23]. For immunoprecipitation, cells were harvested and then lysed in NP-40 buffer supplemented with a complete protease inhibitor cocktail (Roche). After pre-clearing with protein A/G agarose beads (GE Healthcare Life Science) for 1 h at 4 °C, whole-cell lysates were used for immunoprecipitation with the indicated antibodies. Generally, 1–4 μg of commercial antibody was added to 1 ml of cell lysates and incubated at 4 °C for 8 to 12 h. After the addition of protein A/G agarose beads for 6 h, immunoprecipitants were extensively washed with lysis buffer and eluted with SDS loading buffer by boiling for 5 min.
Cell culture supernatants, mice sera and synovial fluid were analyzed for cytokine content using the BD OptEIA ELISA set (BD Pharmingen) for the detection of TNF-α, IL-6, IL-1β, and IL-18. All assays were performed as recommended by the manufacturer.
Figure 6 TIPTP is active for cells from healthy humans or patients with RA. (a and b) LPS-primed human monocytes were treated with TIPTP (0.01, 0.1, 1 μM) for 30 min, and then activated with ATP for the 30 min. (a) IP with αp22phox or αRubicon, followed by IB with αRubicon or αp22phox. Loading control was used for IB with αActin. (b) Culture supernatants were harvested and analyzed for cytokines by ELISA (left). […] (e) Culture supernatants were harvested and analyzed for cytokines by ELISA (left). […]

C[C@@H](Oc1cccc(-n2cc3c(n2)CCCC3)c1)C(=O)Nc1nnc(C(F)(F)F)s1 [TIPTP, (R)-2-(3-(4,5,6,7-tetrahydro-2H-indazol-2-yl)phenoxy)-N-(5-(trifluoromethyl)-1,3,4-thiadiazol-2-yl)propanamide]
survival rate ([1]; CAIA mice transduced with Ad-Rubicon, TIPTP every 2 days intraperitoneal, monitored 15 days (Fig. 5a)): 90%
arthritic clinical scores, paw swelling, and histopathological evaluation vs vehicle ([1]; Rubicon-expressing and vector CAIA mice (Fig. 5b,c)): markedly decreased
p22phox–Rubicon interaction ([2]; RA patient cells, WB and confocal (Fig. 6c,d)): efficiently inhibit
p22phox-NOX2, NOX4, or NOX5 interaction ([2]; RA patient synoviocytes (Supplemental Fig. 7)): not inhibit
caspase-1 activation, and IL-1β and IL-18 production ([2]; freshly isolated RA synoviocytes without NLRP3 agonists (Fig. 6e)): inhibited in a dose-dependent manner
